Series [1] is described as follows: Percentage unbound in human plasma at 10 uM after 16 hrs by LC-MS/MS analysis.
The test system of series [2] is Escherichia coli. Description: Antimicrobial activity against Escherichia coli by broth microdilution method. It counts as functional. On the technique in general: In broth dilution the organism is exposed to a series of concentrations in liquid medium.
Series [3] can be described thus: Half life in PBS buffer in pH 7.4 by UPLC analysis. The series is classed as ADME.
The nature of series [4]: Plasma protein binding in Wistar Han rat as percentage unbound.
For series [5], the system named is Pseudomonas aeruginosa. As to the kind of experiment: Inhibition of Pseudomonas aeruginosa PBP3 acylation activity by BOCILLIN FL-based assay.
In series [6] the test system is Pseudomonas aeruginosa. Description: Antimicrobial activity against Pseudomonas aeruginosa PAO1 ARC545 by broth microdilution method. The series is classed as functional.
The test system of series [7] is Pseudomonas aeruginosa. As to the kind of experiment: Antimicrobial activity against Pseudomonas aeruginosa by broth microdilution method. The series is classed as functional.
The subject of series [8] is Klebsiella pneumoniae. As to the kind of experiment: Antimicrobial activity against Klebsiella pneumoniae by broth microdilution method. It counts as functional.
Series [9] in a line: Clearance in Wistar Han rat at 1 mg/kg, iv infusion. The series is classed as ADME, organism-based. Further details: dose 1 mg/kg, route intravenous. The note with it: in vivo.
A short description of series [10]: Volume of distribution at steady state in Wistar Han rat at 1 mg/kg, iv infusion. The series is classed as ADME, organism-based. The following applies: in vivo, read-out: Vdss. Further details: dose 1 mg/kg, route intravenous.
Series [11] relates to Pseudomonas aeruginosa. Description: Antimicrobial activity against MexABCDXY-deficient Pseudomonas aeruginosa PAO1 ARC546 by broth microdilution method. It counts as functional.
Series [12] concerns Acinetobacter baumannii. Description: Antimicrobial activity against Acinetobacter baumannii by broth microdilution method. The series is classed as functional.
Series [13] can be described thus: Half life in Wistar Han rat at 1 mg/kg, iv infusion. On the set-up: dose 1 mg/kg, route intravenous. The series is classed as ADME, organism-based. The following applies: in vivo.

In brackets after ≈: the same amount, converted by molar mass.

For orientation: fraction unbound means the share of the substance not bound to proteins or other matrix. Read a high fraction unbound as much free substance. The term MIC90 denotes the lowest concentration that inhibits either 90% of growth or 90% of the strains tested, depending on the study. High values mean weaker potency, low ones greater potency. A word on the half-life: it is the time needed for the level to fall by half in the phase considered. Read a low half-life as rapid decline. As usually defined, the MIC is the lowest concentration found to suppress growth. The low end stands for inhibition by little substance, the high end for a need for much substance. Broadly, the clearance is the rate of elimination divided by the concentration. Higher therefore signals a high capacity for elimination.

Regarding `C[C@H]1[C@H](NC(=O)/C(=N\OC(C)(C)C(=O)O)c2csc(N)n2)C(=O)N1C(=O)NS(=O)(=O)N1C[C@@H](NC(=O)NCc2cc(=O)c(O)cn2O)CC1=O`, in series [1], the unbound share (fraction unbound) at 16 h, 10 µM is 0.26. Moreover, the MIC90 in series [2] was 16 µg/mL (≈ 21.5 µM); in [7], 2 µg/mL (≈ 2.69 µM); in series [8], 32 µg/mL (≈ 43.1 µM); in series [12], greater than 128 µg/mL. Besides, the half-life in series [3] was 87 h; in series [13] it was 29.4 min. This compound came in with a fraction unbound in [4] of 0.29. The compound further returned a Kinact in series [5] of 5.9 ×10⁴ /M/s. Further, the results for the minimum inhibitory concentration (MIC) in series [6] and in series [11] were 0.5 µg/mL (≈ 0.673 µM) and less than 0.06 µg/mL, respectively. The clearance in series [9] turned out to be 9 mL/min/kg. Also, the Vd in series [10] amounted to 0.29 L/kg.
As for `C[C@H]1[C@H](NC(=O)/C(=N\OC(C)(C)C(=O)O)c2csc(N)n2)C(=O)N1C(=O)NS(=O)(=O)n1nc(-c2cc(=O)c(O)c[nH]2)n(C[C@@H](O)CO)c1=O`, the free fraction (fraction unbound) at 16 h, 10 µM in series [1] came to 0.04. Moreover, the MIC90 was 16 µg/mL (≈ 22 µM) in [2], 0.25 µg/mL (≈ 0.343 µM) in [7], 8 µg/mL (≈ 11 µM) in series [8] and greater than 128 µg/mL in [12]. In addition, the half-life is 138 h in series [3] and 23.4 min in series [13]. In [4], this compound gave a fraction unbound of 0.04. In series [5], this compound came in with a Kinact of 7.2 ×10⁴ /M/s. In addition, the results for the minimum inhibitory concentration (MIC) in series [6] and in series [11] were 0.25 µg/mL (≈ 0.343 µM) and less than 0.06 µg/mL, respectively. In series [9], this compound registered a clearance of 9 mL/min/kg. For the same compound, the Vd in series [10] worked out at 0.28 L/kg.
The compound `C[C@H]1[C@H](NC(=O)/C(=N\OC(C)(C)C(=O)O)c2csc(N)n2)C(=O)N1C(=O)NS(=O)(=O)N1C[C@@H](NC(=O)c2cc(=O)c(O)c[nH]2)CC1=O` displayed a fraction unbound at 16 h, 10 µM in series [1] of 0.24. The MIC90 is 32 µg/mL (≈ 45.9 µM) in series [2], 2 µg/mL (≈ 2.87 µM) in series [7], 32 µg/mL (≈ 45.9 µM) in series [8] and greater than 64 µg/mL in [12]. Besides, the values for the half-life in [3] and in series [13] were greater than 150 h and 20.4 min, respectively. The fraction unbound in series [4] came to 0.06. The Kinact in series [5] was found to be 1.5 ×10⁵ /M/s. Besides, the MIC is 1 µg/mL (≈ 1.43 µM) in series [6] and less than 0.06 µg/mL in series [11]. In addition, the clearance in [9] stood at 16 mL/min/kg. The Vd in [10] turned out to be 0.44 L/kg.

These data come from ChEMBL document CHEMBL3407427, “Discovery of efficacious Pseudomonas aeruginosa-targeted siderophore-conjugated monocarbams by application of a semi-mechanistic pharmacokinetic/pharmacodynamic model” (J Med Chem, 2015).
